Source: US7829524B2, “Antimicrobial peptides” (Novozymes Adenium Biotech A/S, priority 2003, dated 2010)
Where two headings read alike, the source gives them in different places. Where no end group is shown, it is not given here.

Columns and labels:
[1] = test system: Bacillus subtilis (ATCC6633); experiment: NCCLS microdilution broth assay (MIC); type: cell-based; conditions: susceptible strain, NCCLS guidelines
Excerpt: (§1) According to the NCCLS guidelines for susceptibility test of novel antimicrobial compounds, we found a broad spectrum of activity of Cat1 (Methods for Dilution Antimicrobial Susceptibility Tests for Bacteria That Grow Aerobically; Approved Standard-Fifth Edition. NCCLS document M7-A5 (ISBN1-56238-394-9)).

[2] = test system: Proteus mirabilis (ATCC7002); experiment: NCCLS microdilution broth assay (MIC); type: cell-based; conditions: susceptible strain, NCCLS guidelines
Excerpt: as §1

[3] = test system: Enterococcus faecalis (DSM2570); experiment: NCCLS microdilution broth assay (MIC); type: cell-based; conditions: susceptible strain, NCCLS guidelines
Excerpt: as §1

[4] = test system: Staphylococcus epidermidis (DSM1798); experiment: NCCLS microdilution broth assay (MIC); type: cell-based; conditions: susceptible strain, NCCLS guidelines
Excerpt: as §1

[5] = test system: Bortadella bronchiseptica (ATCC4617); experiment: NCCLS microdilution broth assay (MIC); type: cell-based; conditions: susceptible strain, NCCLS guidelines
Excerpt: as §1

[6] = test system: Klepsiella pneumoniae (ATCC10031); experiment: NCCLS microdilution broth assay (MIC); type: cell-based; conditions: susceptible strain, NCCLS guidelines
Excerpt: as §1

[7] = test system: Eschericia coil (ATCC10536); type: cell-based, Escherichia coli
Experimental: as §1
(§2) The antimicrobial activity of the polypeptides of the invention was analyzed using the Microdilution Broth Assay (see Example 1) with Mueller Hinton Broth (MHB) media. Four different bacterial strains were tested in this setup; Micrococcus luteus (ATCC 9341), Pseudomonas aeruginosa (ATCC 27853), Escherichia coli (ATCC 10536) and Klebsiella pneumoniae (DSM681). The amino acid sequence of the polypeptides and the Minimal Inhibitory concentrations (MIC, microgram/ml) obtained is presented in Table 7 below.

[8] = test system: Micrococcus luteus (ATCC9341); type: cell-based; conditions: susceptible strain, NCCLS guidelines
Experimental: as §1
(§3) In another campaign, the specific MICs of Cat1 were determined against a variety of microbial strains relevant for wound infections. As recommended in the above-mentioned NCCLS protocol, the strains were grown in cationic adjusted Muller-Hinton Broth. The highest concentration tested was 32 μg/ml.
as §2

[9] = test system: Pseudomonas aeroginosa (ATCC27853); type: cell-based, Pseudomonas aeruginosa
Experimental: as §1, §3
Minimal inhibitory concentrations of Cat1 were also determined using cation-adjusted Mueller hinton broth (MHB) in the microbroth dilution assay, wherein MHB was used with different modifications as depicted in Table 2 below. The selected test organism was Pseudomonas aeroginosa (ATCC 27853). […]

[10] = test system: Salmonella choleraesuis (DSM9220); type: cell-based
Excerpt: as §1

Escherichia coli Top10 = experiment: Radial Diffusion Assay using minimal conditions (MEC); type: cell-based; conditions: Table 8
Experimental: (§4) A modified version of a previously published protocol has been applied in the detection of antimicrobial activity (Lehrer et al., (1991) Ultra sensitive assays for endogenous antimicrobial polypeptides J Immunol Methods 137: 167-173). Target bacteria (10^6 colony forming units (CFU)) were added to 10 ml of underlay agarose (1% low electro-endosmosis agarose, 0.03% Trypticase soy broth, 10 mM sodium phosphate, pH 7.4, 37 degrees Celsius). Suspension was solidified on an INTEGRID Petri Dish (Becton Dickinson Labware). A 3 mm Gel Puncher was used to make holes in the underlay agarose (Amersham Pharmacia Biotech, Sweden). Samples were added to the holes and incubated at 37 degrees Celsius, 3 hours. An overlay was poured on top and the plate was incubated overnight (LB media, 7.5% Agar). Antimicrobial activity was seen as bacterial clearing zones around the wells. Living cells was counterstained by adding 10 ml, 0.2 mM MTT (3-(4,5-Dimethylthiazol-2-yl)-2,5-diphenyltetrazolium bromide Thiazolyl blue).
(§5) The antimicrobial activity of the polypeptides of the invention was also analyzed in a Radial Diffusion Assay (see Example 1) using minimal conditions. Two bacterial strains were tested in this setup; Staphylococcus camosus and Escherichia coli Top10. The amino acid sequence of the polypeptides and the Minimal Effective Concentration (MEC, microgram/ml) obtained is presented in table 8 below.

Staphylococcus camosus = experiment: as above; type: cell-based; conditions: Table 8
Experimental: as §4, §5

[11] = test system: Pseudomonas aeroginosa (ATCC 27853); experiment: Killing kinetics in MHB; type: cell-based, Pseudomonas aeruginosa; conditions: Cat1 at 4×MIC
Experimental: The rate of killing of Cat1 was determined in MHB using Pseudomonas aeroginosa (ATCC 27853) as the test organism. The bacteria were incubated with Cat1 (at 4×MIC concentration). At different time-points, several dilutions of the preparation were plated and an estimate of viable cells was determined (CFU/ml). The results in Table 3 indicate that Cat1 rapidly kills the bacteria, with a near 3-log reduction in CFU within 30 minutes.

[12] = test system: Klebsiella pneumoniae (DSM681); type: cell-based
Experimental: as §1, §2

bacteria strains = experiment: NCCLS microdilution broth assay, minimal bactericidal concentration (MBC); type: cell-based; conditions: compared with MIC (<64 μg/ml) of the susceptible strains
Excerpt: as §1

[13] = test system: Clostridium difficile ATCC 43594; experiment: NCCLS microdilution broth assay (MIC), wound infection strains; type: cell-based; conditions: Table 1; cationic adjusted Muller-Hinton Broth; highest concentration tested 32 μg/ml
Experimental: as §1, §3

[14] = test system: Stenotrophomonas maltophilia ATCC 12714; type: cell-based
Experimental: as §1, §3

[15] = test system: Escherichia coli ATCC 25922; type: cell-based
Experimental: as §1, §3

[16] = test system: Klebsiella pneumoniae ATCC 29995; type: cell-based
Experimental: as §1, §3

[17] = test system: Staphylococcus epidermidis ATCC 12228; type: cell-based
Experimental: as §1, §3

[18] = test system: Aerococcus viridans ATCC 700406; type: cell-based
Experimental: as §1, §3

[19] = test system: Streptococcus agalactiae ATCC 624; type: cell-based
Experimental: as §1, §3

[20] = test system: Staphyloloccus aureus GISA ATCC 700699; type: cell-based
Experimental: as §1, §3

[21] = test system: Streptotoccus pyogenes ATCC 4543; type: cell-based
Experimental: as §1, §3

[22] = test system: Staphylococcus aureus (MSSA) ATCC 25923; type: cell-based
Experimental: as §1, §3

[23] = test system: Streptococcus pneumoniae ATCC 10015; type: cell-based
Experimental: as §1, §3

[24] = susceptible strain, NCCLS guidelines

## GLLRRLRKKIGKKLKKIGQKIKPIRILVP [SEQ ID NO: 3]
[1]
  MIC: < 64 µg/mL
[2]
  MIC: < 64 µg/mL
[3]
  MIC: < 64 µg/mL
[4]
  MIC: < 64 µg/mL
[5]
  MIC: < 64 µg/mL
[6]
  MIC: < 64 µg/mL
[7]; ATCC10536
  MIC: 8 µg/mL
[7]; [24]
  MIC: < 64 µg/mL
[8]
  MIC: < 64 µg/mL
[9]; ATCC27853, pH 5.5
  MIC: 6 µg/mL
[9]; ATCC27853, pH 6.5
  MIC: 6 µg/mL
[9]; [24]
  MIC: < 64 µg/mL
[10]
  MIC: < 64 µg/mL
Escherichia coli Top10
  MEC: 8.5 µg/mL
Staphylococcus camosus
  MEC: 2.5 µg/mL
[11]; 0.5 hours
  viable cells (CFU/ml): 175 CFU/ml
[11]; 1.5 hours
  viable cells (CFU/ml): <20 CFU/ml
[11]; 24 hours
  viable cells (CFU/ml): <20 CFU/ml
[11]; within 30 minutes
  reduction in CFU: ~3 log
[12]
  MIC: 32 to 64 µg/mL
Bacteria strains
  Minimal bactericidal concentration (MBC): in a similar range
[13]
  MIC: 32 µg/mL
[14]
  MIC: 1 µg/mL
[15]
  MIC: 1.5 µg/mL
[16]
  MIC: 8 µg/mL
[17]
  MIC: 4 µg/mL
[18]
  MIC: 0.5 µg/mL
[19]
  MIC: 16 µg/mL
[20]
  MIC: 32 µg/mL
[21]
  MIC: 1.5 µg/mL
[22]
  MIC: 32 µg/mL
[23]
  MIC: 8 µg/mL
